Tests used:
[1] = Stability in water and methanol solution; type: physicochemical; conditions: sodium salt
[2] = Solubility in water and methanol; type: physicochemical; conditions: sodium salt
[3] = tested on: rat MCAO model; assay: Brain infarction volume and brain edema volume in rats with local brain ischemia (MCAO model); type: in vivo, Wistar rats
Text: Wistar rats (50% of rats is female and another 50% of rats is male); 5-bromo-2-(α-hydroxypentyl)benzoic acid sodium salt (BZP, in the form of amorphous form, crystal form A and crystal form B, prepared according to the present invention), prepared in double distilled water; […] is in the form of white powder, manufactured by Beijing Chemical Works.
Administration method: 5-bromo-2-(α-hydroxypentyl)benzoic acid sodium salt (BZP) was intravenously injected at one hour before MCAO, with the dosage of 12 mg/kg; 5-bromo-2-(α-hydroxypentyl)benzoic acid sodium salt (BZP) was used to intragastric administration at one hour before MCAO, with the dosage of 20 mg/kg. 2-(α-hydroxypentyl)benzoic acid potassium salt (NBP-K) was used as positive control, and its dosage (calculated in moles) is the same as that of 5-bromo-2-(α-hydroxypentyl)benzoic acid sodium salt, that is, the dosage of intravenous injection is 9.6 mg/kg, and the dosage of intragastric administration is 15.9 mg/kg.
Preparation of MCAO model: Establish a focal brain ischemia-reperfusion injury model by cerebral artery obstruction in rats with suture-occluded method. Rats were intraperitoneally injected with 10% chloral hydrate to anesthetize. Rats were fixed on back and the skin of neck center was incised. The left common carotid artery, external carotid artery, and internal carotid artery were subjected to blunt dissection. The pterygopalatine artery was ligated, only remaining cranial trunk of internal carotid artery; a prepared nylon rope (burning diameter 0.3 mm) was inserted via external carotid artery incision into the bifurcation of the […], and was pushed along the cranial direction of the internal carotid artery. […] This indicates one side of the middle cerebral artery occlusion model was completed. Sutured the incision, remained the end of nylon line out of the skin. For reperfusion, the nylon line was gently pulled out. If feel force of resistance, this indicates the end of nylon line has returned to the trunk of external carotid artery, thereby accomplishing reperfusion.
Determination of infarction volume: After being subjected to ischemia for 2 hours and reperfusion for 24 hours, the heads of rats were cut off. Forebrain was removed and cut into six pieces, each piece being 2 mm. The pieces were stained with TC, and incubated at 37° C. for 30 minutes. Normal issues were stained to be red, but the infarcted issues were stained to be white. Took photos with digital camera, and calculated the percentage of the infarcted area relative to the spherical area of brain by Photoshop.

[4] = Acute toxicity (LD50), rat; conditions: in vivo
[5] = tested on: Rat; assay: Sub-acute toxicity, rat
[6] = Acute toxicity (LD50), mouse; conditions: in vivo
[7] = intragastric administration one hour before MCAO, BZP 20 mg/kg, NBP-K 15.9 mg/kg, sodium salt
[8] = intravenous injection one hour before MCAO, 12 mg/kg, sodium salt, 12 mg/kg
[9] = intravenous injection one hour before MCAO, BZP 12 mg/kg, NBP-K 9.6 mg/kg, ischemia 2 hours, reperfusion 24 hours, sodium salt
[10] = intravenous injection one hour before MCAO, BZP 12 mg/kg, NBP-K 9.6 mg/kg, sodium salt
[11] = intragastric administration one hour before MCAO, BZP 20 mg/kg, NBP-K 15.9 mg/kg
[12] = intravenous injection one hour before MCAO, 12 mg/kg

## CCCCC(O)c1ccc(Br)cc1C(=O)[O-].[Na+] (mixture of isomers) [BZP (mixture), 5-bromo-2-(α-hydroxypentyl)benzoic acid sodium salt, reference compound]
[1]; in methanol solution
  Stability: >12 h
[1]; in water
  Stability: >12 h
[2]
  Solubility in methanol: 1580 mg/mL
  Solubility in water: 2130 mg/mL

## CCCCC(O)c1ccc(Br)cc1C(=O)[O-].[Na+] (stereo not drawn) [BZP (crystal form A), 5-bromo-2-(α-hydroxypentyl)benzoic acid sodium salt]
[1]; in methanol solution, listed as BZP (Form A)
  Stability: >24 h
[1]; in water, listed as BZP (Form A)
  Stability: >20 h
[2]; listed as BZP (Form A)
  Solubility in methanol: 1800 mg/mL
  Solubility in water: 2360 mg/mL
[3]; [7]
  Edema (%): 2.7 ± 1.30^aa** %
  Infarction volume (%): 7.13 ± 2.98 aa %
  Inhibition of edema (%): 87.55%
  Inhibition of infarction volume (%): 86.65%
[3]; [8]
  Edema (%): 3.24 ± 4.11^aa* %
  Inhibition of edema (%): 81.28%
[3]; [9]
  Infarction volume (%): 4.54 ± 1.73 aa %
[3]; [10]
  Inhibition of infarction volume (%): 91.50%

## CCCCC(O)c1ccccc1C(=O)[O-].[K+] (stereo not drawn) [NBP-K, 2-(α-hydroxypentyl)benzoic acid potassium salt, reference compound]
[4]; iv
  LD50: 230 mg/kg
[4]; po
  LD50: 623 mg/kg
[5]; ig
  Sub-acute: >20 mg/kg
[5]; iv
  Sub-acute: >12 mg/kg
[6]; iv
  LD50: 303 mg/kg
[6]; po
  LD50: 880 mg/kg
[3]; [11]
  Edema (%): 11.04 ± 1.48^aa** %
  Infarction volume (%): 22.28 ± 2.65^aa %
  Inhibition of edema (%): 42.65%
  Inhibition of infarction volume (%): 58.3%
[3]; [12]
  Edema (%): 12.38 ± 1.29%
  Inhibition of edema (%): 9.37%
[3]; intravenous injection one hour before MCAO, BZP 12 mg/kg, NBP-K 9.6 mg/kg
  Inhibition of infarction volume (%): 54.42%
[3]; intravenous injection one hour before MCAO, BZP 12 mg/kg, NBP-K 9.6 mg/kg, ischemia 2 hours, reperfusion 24 hours
  Infarction volume (%): 24.35 ± 4.32^aa %

## CCCCC(O)c1ccc(Br)cc1C(=O)[O-].[Na+] (stereo not drawn) [BZP (crystal form B), 5-bromo-2-(α-hydroxypentyl)benzoic acid sodium salt]
[1]; in methanol solution, listed as BZP (Form B)
  Stability: >24 h
[1]; in water, listed as BZP (Form B)
  Stability: >24 h
[2]; listed as BZP (Form B)
  Solubility in methanol: 1630 mg/mL
  Solubility in water: 2430 mg/mL
[3]; [7]
  Edema (%): 2.87 ± 1.56^aa** %
  Infarction volume (%): 7.13 ± 2.98^aa** %
  Inhibition of edema (%): 85.09%
  Inhibition of infarction volume (%): 86.03%
[3]; [8]
  Edema (%): 4.20 ± 2.03a %
  Inhibition of edema (%): 78.71%
[3]; [9]
  Infarction volume (%): 4.76 ± 1.45 aa %
[3]; [10]
  Inhibition of infarction volume (%): 91.09%

## CCCCC(O)c1ccc(Br)cc1C(=O)[O-].[Na+] (stereo not drawn) [5-bromo-2-(α-hydroxypentyl)benzoic acid sodium salt]
[3]; at the same dosage, conclusion in words
  Activity compared with 2-(α-hydroxypentyl)benzoic acid potassium salt: obviously better than 2-(α-hydroxypentyl)benzoic acid potassium salt
[3]; rats, conclusion in words
  Effect on brain tissue injury induced by obstruction of cerebral arteries: can obviously reduce brain tissue injury induced by obstruction of cerebral arteries
